Test results published in patent publication US20030152597A1, “Use of at least one sapogenin for prevening the skin or ageing symptoms” (priority 2000, published 2003).

Tested on: collagenase produced by Clostridium Histolyticum
Assay: Inhibition of collagenase activity (DQ-gelatin fluorescence)
Type: biochemical
Settings: decrease in collagenase activity relative to the control
Description: The effect of an extract of wild yam on the inhibition of the activity of collagenase produced by Clostridium Histolyticum was evaluated. Although different from a human enzyme, this collagenase is used on account of its ability to digest human collagen. […]
The control consisted of collagenase without test product. Thus, the activity of the control constitutes 100% collagenase activity and thus 0% inhibition of the said activity.
The products were preincubated with the enzyme for 10 minutes at room temperature, and DQ-gelatin was then added and the fluorescence obtained on degradation of the substrate was recorded for 10 minutes (excitation 480 nm; emission 538 nm) on a SpectraMax spectrofluorimetre (Molecular Devices); the results were processed using Soft Max Pro software.
The percentages indicated represent the decrease in collagenase activity relative to the control.

In the case of `c1cnc2c(c1)ccc1cccnc12` [Phenanthroline, phenanthroline], the “% inhibition (n = 4)” value (0.1 mM in ethanol) is reported as 96%, the “% inhibition (n = 4)” value (0.25 mM in ethanol) is reported as 40% and the “% inhibition (n = 4)” value (0.5 mM in ethanol) is reported as 65%.
